Laboratory results as given in ChEMBL document CHEMBL4303773 (Nature, 2020).

Columns and labels:
[1] = test system: Vero C1008; experiment: Cytotoxicity of compound against Vero E6 cells by MTT assay.; details: chlorocebus sabaeus, vero c1008
[2] = target: T1, Alpha-2C adrenergic receptor (Homo sapiens, UniProt P18825)
T1 sequence (P18825 whole entry): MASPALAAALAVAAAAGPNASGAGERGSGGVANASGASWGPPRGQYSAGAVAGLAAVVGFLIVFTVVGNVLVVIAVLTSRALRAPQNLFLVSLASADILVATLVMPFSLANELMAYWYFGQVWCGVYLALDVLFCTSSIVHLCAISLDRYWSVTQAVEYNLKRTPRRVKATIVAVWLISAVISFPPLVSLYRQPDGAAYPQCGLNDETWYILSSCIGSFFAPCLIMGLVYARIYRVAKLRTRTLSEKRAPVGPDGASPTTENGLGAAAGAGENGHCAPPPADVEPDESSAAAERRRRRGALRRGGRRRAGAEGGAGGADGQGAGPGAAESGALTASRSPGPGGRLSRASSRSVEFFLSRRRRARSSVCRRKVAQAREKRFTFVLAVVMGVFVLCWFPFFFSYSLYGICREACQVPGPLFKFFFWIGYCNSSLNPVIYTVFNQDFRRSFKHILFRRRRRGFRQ
Description: Activity of compound against Alpha 2C (ADRA2C) adrenergic receptor by displacement of [3H]-rauwolscine

[3] = target: T2, Muscarinic acetylcholine receptor M1 (Homo sapiens, UniProt P11229)
T2 sequence (P11229 whole entry): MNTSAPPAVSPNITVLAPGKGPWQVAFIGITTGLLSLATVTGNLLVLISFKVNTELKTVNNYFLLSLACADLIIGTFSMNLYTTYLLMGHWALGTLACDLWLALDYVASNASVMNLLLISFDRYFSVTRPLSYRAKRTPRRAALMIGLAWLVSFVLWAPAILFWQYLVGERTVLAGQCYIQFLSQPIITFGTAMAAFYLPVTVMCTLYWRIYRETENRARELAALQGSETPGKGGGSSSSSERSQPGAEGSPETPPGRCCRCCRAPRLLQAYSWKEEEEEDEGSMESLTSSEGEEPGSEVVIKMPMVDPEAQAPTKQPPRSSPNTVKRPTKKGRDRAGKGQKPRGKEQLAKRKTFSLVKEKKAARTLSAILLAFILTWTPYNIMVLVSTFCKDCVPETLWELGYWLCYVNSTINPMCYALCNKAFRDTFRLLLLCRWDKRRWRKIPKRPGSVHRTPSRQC

[4] = target: Sigma intracellular receptor 2 (Homo sapiens, UniProt Q5BJF2); experiment: Displacement of [3H]-DTG from the Sigma2 receptor
Chain of Sigma intracellular receptor 2 (Q5BJF2 whole entry): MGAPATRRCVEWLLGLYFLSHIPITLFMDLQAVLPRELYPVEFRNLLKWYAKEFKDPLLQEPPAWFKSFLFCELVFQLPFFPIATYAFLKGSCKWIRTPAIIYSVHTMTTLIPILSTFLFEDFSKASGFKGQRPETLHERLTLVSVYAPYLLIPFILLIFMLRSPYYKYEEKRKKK

[5] = target: Sigma non-opioid intracellular receptor 1 (Homo sapiens, UniProt Q99720)
Chain of Sigma non-opioid intracellular receptor 1 (Q99720 whole entry): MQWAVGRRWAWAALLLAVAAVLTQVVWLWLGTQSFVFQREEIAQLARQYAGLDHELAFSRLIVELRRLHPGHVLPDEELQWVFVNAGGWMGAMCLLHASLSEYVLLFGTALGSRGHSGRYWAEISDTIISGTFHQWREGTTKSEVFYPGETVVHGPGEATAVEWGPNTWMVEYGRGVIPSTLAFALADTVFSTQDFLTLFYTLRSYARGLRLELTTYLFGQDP
Description: Displacement of [3H]-pentazocin from the Sigma1 receptor

[6] = target: T3, Alpha-2A adrenergic receptor (Homo sapiens, UniProt P08913); experiment: Activity of compound against Alpha-2A (ADRA2A) adrenergic receptor by displacement of [3H]-rauwolscine
T3 sequence (P08913 whole entry): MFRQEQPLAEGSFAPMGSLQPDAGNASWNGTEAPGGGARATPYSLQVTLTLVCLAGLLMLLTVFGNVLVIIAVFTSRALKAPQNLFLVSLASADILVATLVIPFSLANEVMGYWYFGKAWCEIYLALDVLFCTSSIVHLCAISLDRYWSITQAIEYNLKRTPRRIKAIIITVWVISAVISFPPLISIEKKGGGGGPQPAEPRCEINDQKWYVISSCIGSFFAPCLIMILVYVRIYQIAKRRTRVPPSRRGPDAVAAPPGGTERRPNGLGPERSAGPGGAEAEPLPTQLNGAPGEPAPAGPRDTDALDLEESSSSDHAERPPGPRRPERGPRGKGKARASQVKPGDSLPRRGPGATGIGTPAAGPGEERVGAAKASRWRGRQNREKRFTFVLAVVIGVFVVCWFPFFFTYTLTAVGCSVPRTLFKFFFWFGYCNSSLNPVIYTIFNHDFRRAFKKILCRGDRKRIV

[7] = target: T4, Muscarinic acetylcholine receptor M2 (Homo sapiens, UniProt P08172); experiment: Activity of compound against Muscarinic acetylcholine receptor M2 (CHRM2) by displacement of 3H-QNB
T4 sequence (P08172 whole entry): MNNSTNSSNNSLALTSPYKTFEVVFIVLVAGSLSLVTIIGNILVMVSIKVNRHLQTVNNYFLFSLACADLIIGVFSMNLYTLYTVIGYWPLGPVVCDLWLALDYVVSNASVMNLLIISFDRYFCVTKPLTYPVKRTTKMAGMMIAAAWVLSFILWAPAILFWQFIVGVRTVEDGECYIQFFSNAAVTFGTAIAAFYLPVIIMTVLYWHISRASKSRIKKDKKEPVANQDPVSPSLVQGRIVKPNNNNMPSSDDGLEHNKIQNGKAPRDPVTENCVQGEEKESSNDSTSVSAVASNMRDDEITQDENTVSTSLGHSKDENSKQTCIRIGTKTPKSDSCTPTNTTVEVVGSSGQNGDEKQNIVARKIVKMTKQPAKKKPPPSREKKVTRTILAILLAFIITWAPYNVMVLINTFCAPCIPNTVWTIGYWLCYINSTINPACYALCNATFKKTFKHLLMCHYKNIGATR

[8] = target: Muscarinic acetylcholine receptor M3 (Homo sapiens, UniProt P20309)
Chain of Muscarinic acetylcholine receptor M3 (P20309 whole entry): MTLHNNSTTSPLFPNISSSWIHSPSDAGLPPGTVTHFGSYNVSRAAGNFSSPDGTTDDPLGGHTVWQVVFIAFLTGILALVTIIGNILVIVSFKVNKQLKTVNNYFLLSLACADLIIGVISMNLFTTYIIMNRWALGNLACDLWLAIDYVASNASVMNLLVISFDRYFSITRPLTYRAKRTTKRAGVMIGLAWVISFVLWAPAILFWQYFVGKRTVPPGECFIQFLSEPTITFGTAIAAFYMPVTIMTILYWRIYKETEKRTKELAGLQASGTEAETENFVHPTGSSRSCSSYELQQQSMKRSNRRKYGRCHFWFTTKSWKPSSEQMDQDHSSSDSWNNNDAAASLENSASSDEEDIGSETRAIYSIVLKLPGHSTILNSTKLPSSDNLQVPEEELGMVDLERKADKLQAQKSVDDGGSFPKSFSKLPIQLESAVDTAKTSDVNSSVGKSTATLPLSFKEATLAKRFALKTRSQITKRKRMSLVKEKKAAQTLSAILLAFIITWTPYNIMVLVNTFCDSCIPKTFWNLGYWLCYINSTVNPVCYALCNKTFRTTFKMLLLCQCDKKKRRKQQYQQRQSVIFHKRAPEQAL

[9] = target: T5, Muscarinic acetylcholine receptor M4 (Homo sapiens, UniProt P08173); experiment: Activity of compound against Muscarinic acetylcholine receptor M4 (CHRM4) by displacement of 3H-QNB
T5 sequence (P08173 whole entry): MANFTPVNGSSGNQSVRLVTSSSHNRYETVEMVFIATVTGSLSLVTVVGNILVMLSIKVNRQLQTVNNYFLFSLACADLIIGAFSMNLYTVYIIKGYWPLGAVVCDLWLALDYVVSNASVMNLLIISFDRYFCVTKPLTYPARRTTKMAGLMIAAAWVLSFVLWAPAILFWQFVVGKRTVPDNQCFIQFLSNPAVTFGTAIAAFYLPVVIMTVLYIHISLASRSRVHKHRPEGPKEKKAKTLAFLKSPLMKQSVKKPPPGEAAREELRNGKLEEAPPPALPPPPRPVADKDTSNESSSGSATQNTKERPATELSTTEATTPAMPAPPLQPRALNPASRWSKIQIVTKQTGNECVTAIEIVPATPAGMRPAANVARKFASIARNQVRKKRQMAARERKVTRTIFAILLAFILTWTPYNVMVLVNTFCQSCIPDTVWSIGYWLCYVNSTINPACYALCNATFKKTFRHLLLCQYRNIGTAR

[10] = target: Voltage-gated inwardly rectifying potassium channel KCNH2 (Homo sapiens, UniProt Q12809)
Chain of Voltage-gated inwardly rectifying potassium channel KCNH2 (Q12809 whole entry): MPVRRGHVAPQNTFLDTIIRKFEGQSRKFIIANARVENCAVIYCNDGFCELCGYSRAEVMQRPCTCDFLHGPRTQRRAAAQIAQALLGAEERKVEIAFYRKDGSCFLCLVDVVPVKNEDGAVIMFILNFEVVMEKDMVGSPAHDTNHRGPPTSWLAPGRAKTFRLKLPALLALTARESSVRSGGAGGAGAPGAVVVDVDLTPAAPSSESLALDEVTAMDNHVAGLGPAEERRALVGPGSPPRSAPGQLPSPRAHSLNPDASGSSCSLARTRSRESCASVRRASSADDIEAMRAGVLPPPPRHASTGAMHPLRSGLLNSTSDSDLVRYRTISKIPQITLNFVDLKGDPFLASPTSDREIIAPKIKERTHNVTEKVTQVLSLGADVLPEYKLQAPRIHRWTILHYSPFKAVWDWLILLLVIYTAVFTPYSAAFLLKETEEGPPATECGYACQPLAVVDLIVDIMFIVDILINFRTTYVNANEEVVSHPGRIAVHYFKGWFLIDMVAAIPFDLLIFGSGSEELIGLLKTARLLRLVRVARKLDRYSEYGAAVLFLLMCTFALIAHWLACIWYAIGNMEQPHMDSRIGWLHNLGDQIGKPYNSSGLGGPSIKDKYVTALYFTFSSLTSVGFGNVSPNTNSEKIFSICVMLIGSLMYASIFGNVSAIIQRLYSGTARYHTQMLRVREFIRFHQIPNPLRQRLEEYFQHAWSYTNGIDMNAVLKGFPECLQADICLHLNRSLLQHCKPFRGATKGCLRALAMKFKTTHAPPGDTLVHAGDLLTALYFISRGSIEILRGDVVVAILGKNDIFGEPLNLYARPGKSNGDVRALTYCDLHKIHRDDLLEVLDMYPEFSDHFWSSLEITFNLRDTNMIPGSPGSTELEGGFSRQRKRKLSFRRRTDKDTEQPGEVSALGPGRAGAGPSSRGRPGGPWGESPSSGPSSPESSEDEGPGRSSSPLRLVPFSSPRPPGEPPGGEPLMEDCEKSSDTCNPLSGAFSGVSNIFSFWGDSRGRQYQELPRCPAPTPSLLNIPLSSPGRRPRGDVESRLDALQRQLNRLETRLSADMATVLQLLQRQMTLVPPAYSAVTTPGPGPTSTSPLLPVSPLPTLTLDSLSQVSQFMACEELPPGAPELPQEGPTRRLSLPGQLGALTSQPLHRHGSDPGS
Description: hERG binding assays: Displacement of [3H]-Dofetilide (5 nM final) from hERG membranes obtained from HEK293 cells

## CCCN1CCC=C(c2cc(-c3ccc(C)cc3)no2)C1
[1]
  pCC50: ~ 2.928
[2]
  Ki: 10 µM
[3]
  Ki: > 31.6 µM
[4]
  Ki: 0.794 µM
[5]
  Ki: 0.002 µM
[6]
  Ki: 8.32 µM
[7]
  Ki: 24 µM
[8]
  Ki: 24 µM
[9]
  Ki: 24.5 µM
[10]
  Ki: 10 µM
